From PubChem BioAssay (NCI) come the findings set out here.

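Assay format: 96-well plates, 48-hour exposure. GI50: concentration for 50% inhibition of growth. TGI is the concentration that stops growth completely.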 Bounds are passed on as bounds.

Test systems include T-47D breast; MDA-MB-231 breast; A549 NSCLC; LOX IMVI melanoma; COLO 205 colon; A498 renal; PC-3 prostate; U251 CNS; OVCAR-5 ovarian; HS 578T breast.
Assay in all cases: NCI tumour cell line growth inhibition, 48 h

On to `O=c1c(O)cccn1CCCN(CCCn1cccc(O)c1=O)CCn1cccc(O)c1=O`, for which the GI50 with T-47D breast is 5.64 µM; in the assay on MDA-MB-231 breast, 8.28 µM; in the assay with A549 NSCLC it was 4.03 µM; in the assay with LOX IMVI melanoma, 2.13 µM; in the assay with COLO 205 colon, 21.6 µM; in the assay with A498 renal it was 22.9 µM. For the same molecule, the figures for the GI50 with PC-3 prostate, in the assay with U251 CNS and in the assay with OVCAR-5 ovarian were > 100 µM, 1.84 µM and > 100 µM, respectively. In addition, the TGI in the assay on T-47D breast is > 100 µM; with MDA-MB-231 breast, > 100 µM; in the assay with A549 NSCLC, 75.2 µM; in the assay with LOX IMVI melanoma, > 100 µM; in the assay with COLO 205 colon it was > 100 µM; in the assay with A498 renal, > 100 µM. The TGI with PC-3 prostate, with U251 CNS and in the assay on OVCAR-5 ovarian was > 100 µM each time.
For the molecule `O=C(N/C(=C\c1cc(Cl)ccc1Cl)c1nc2ccc(Cl)cc2[nH]1)c1ccccc1`, the TGI in the assay on A549 NSCLC stood at 38.1 µM; in the assay with LOX IMVI melanoma, 26.4 µM; in the assay on COLO 205 colon, 33.6 µM; in the assay with A498 renal, 41.9 µM; in the assay with U251 CNS it was 30.1 µM; in the assay with OVCAR-5 ovarian, 60.1 µM.
As for `CCCCCCCCCCCCCP(=O)(NCC(N)=O)OCC` (stereo not given), the TGI was found to be 40.7 µM in the assay on A549 NSCLC; 34 µM in the assay on COLO 205 colon; 95.7 µM in the assay on A498 renal; 33 µM in the assay with U251 CNS; 38.3 µM with OVCAR-5 ovarian.
As to `CN1CCc2c1nc(-c1cccnc1)c1c2N(C)CC1`, the TGI with A549 NSCLC, in the assay with LOX IMVI melanoma, in the assay with COLO 205 colon, in the assay on A498 renal, with U251 CNS and in the assay with OVCAR-5 ovarian was > 100 µM throughout.
As to `CCN(C(=O)CN1CCN(c2cc3c(cc2F)c(=O)c(C(=O)O)cn3CC)CC1)c1nc(-c2ccccc2)cs1`, the GI50 with MDA-MB-231 breast is 0.442 µM; in the assay with A549 NSCLC it was 0.365 µM; in the assay on LOX IMVI melanoma, 0.325 µM; in the assay on COLO 205 colon it was 0.226 µM; with HS 578T breast, 0.842 µM; in the assay with A498 renal, 0.244 µM. The GI50 with PC-3 prostate was 0.362 µM; with U251 CNS, 0.354 µM; in the assay on OVCAR-5 ovarian, 0.505 µM. Further, the TGI is > 100 µM with MDA-MB-231 breast; > 100 µM in the assay on A549 NSCLC; > 100 µM in the assay with LOX IMVI melanoma; 0.568 µM in the assay on COLO 205 colon; > 100 µM with HS 578T breast; 0.917 µM in the assay on A498 renal. Also, the TGI in the assay with PC-3 prostate, with U251 CNS and in the assay on OVCAR-5 ovarian was > 100 µM throughout.
Consider `CCC1C(=O)OCc2c1cc1n(c2=O)C(CC)c2c-1nc1ccccc1c2Cl` (stereo not given), for which the TGI was > 100 µM in the assay with A549 NSCLC; > 100 µM with LOX IMVI melanoma; 37 µM in the assay with COLO 205 colon; 58.1 µM in the assay on A498 renal; 49.4 µM in the assay on U251 CNS; 54.6 µM with OVCAR-5 ovarian.
As for `O=C(O)COc1ccc(C(=O)/C(SS/C(C(=O)c2ccc(OCC(=O)O)c(Cl)c2Cl)=C2\C=C(c3ccc(Br)cc3)SS2)=C2/C=C(c3ccc(Br)cc3)SS2)c(Cl)c1Cl`, the TGI was 8.61 µM with T-47D breast; > 100 µM with A549 NSCLC; 13.7 µM in the assay with LOX IMVI melanoma; 14.9 µM in the assay with COLO 205 colon; 17.4 µM with HS 578T breast; > 91.7 µM in the assay on A498 renal. The TGI was 28.2 µM in the assay with U251 CNS and > 100 µM in the assay with OVCAR-5 ovarian.
In the case of `COC(=O)/C(C#N)=C1\CCc2ccccc21`, the TGI in the assay with A549 NSCLC, with LOX IMVI melanoma, in the assay with COLO 205 colon, with A498 renal and in the assay on OVCAR-5 ovarian was > 100 µM each time.
For the molecule `N.N.N.N.N.O=S(=O)([O-])C(F)(F)F.O=S(=O)([O-])C(F)(F)F.[Os+8]`, the GI50 is 24.2 µM in the assay with A549 NSCLC; 4.74 µM in the assay with LOX IMVI melanoma; 10.9 µM in the assay on COLO 205 colon; 12 µM in the assay on A498 renal; 9.22 µM in the assay with U251 CNS; 15.4 µM in the assay on OVCAR-5 ovarian. Also, the TGI is > 100 µM with A549 NSCLC; 20 µM in the assay with LOX IMVI melanoma; 25.4 µM in the assay on COLO 205 colon; 29.5 µM in the assay with A498 renal; 32.5 µM in the assay with U251 CNS; 31.9 µM in the assay on OVCAR-5 ovarian.
For `O=C1/C(=C/c2cccc(Br)c2)COc2ccc(O)c(O)c21`, the GI50 was 1.4 µM with MDA-MB-231 breast; 1.83 µM in the assay on A549 NSCLC; 0.658 µM with LOX IMVI melanoma; 1.54 µM with COLO 205 colon; 2.28 µM with HS 578T breast; 2.01 µM in the assay on A498 renal. Further, the GI50 in the assay with PC-3 prostate is 0.79 µM; with U251 CNS it was 1.1 µM; with OVCAR-5 ovarian, 1.93 µM. In addition, the TGI in the assay on MDA-MB-231 breast is 3.35 µM; in the assay with A549 NSCLC, 4.82 µM; with LOX IMVI melanoma, 2.04 µM; in the assay on COLO 205 colon it was 3 µM; in the assay on HS 578T breast, 7.53 µM; with A498 renal it was 4.74 µM. Further, the TGI in the assay with PC-3 prostate turned out to be 3.45 µM; in the assay on U251 CNS, 2.29 µM; in the assay on OVCAR-5 ovarian, 3.74 µM.
`COC(=O)C#CCC1CCCC1C1SCCS1` (stereo not given): the TGI in the assay with A549 NSCLC, in the assay on LOX IMVI melanoma, with COLO 205 colon, in the assay with A498 renal, in the assay on U251 CNS and in the assay with OVCAR-5 ovarian was > 100 µM throughout.
As for `O=C(O)[C@@H](NS(=O)(=O)c1ccc2ccccc2c1)c1ccccc1`, the TGI in the assay on LOX IMVI melanoma, in the assay with COLO 205 colon, with A498 renal, in the assay on U251 CNS and in the assay on OVCAR-5 ovarian was > 100 µM each time.
`O=C(NCC(=O)N1CCOC1=O)OCc1ccccc1`: the TGI in the assay with A549 NSCLC, in the assay with LOX IMVI melanoma, in the assay with COLO 205 colon, in the assay with A498 renal and in the assay on U251 CNS was > 100 µM throughout.
Turning to `CCN(CC)CCC(CNc1c(C)cnc2cc(Cl)ccc12)c1ccc(Cl)cc1` (stereo not given), the GI50 in the assay with T-47D breast was 2.57 µM; in the assay on A549 NSCLC, 16 µM; with HS 578T breast, 12.3 µM; in the assay on PC-3 prostate it was 10.7 µM; with U251 CNS, 3.83 µM; with OVCAR-5 ovarian it was 8.93 µM. Further, the TGI in the assay on T-47D breast came to 10.5 µM; in the assay on A549 NSCLC, 32.2 µM; with HS 578T breast, 34.1 µM; with PC-3 prostate, 24 µM; in the assay with U251 CNS, 13.2 µM; in the assay on OVCAR-5 ovarian, 24 µM.
